Data set [1] is described as follows: Solubility of apixaban in propylene glycol based vehicles. The class given is physicochemical. As to the method:
(§1) However, for achieving solutions of apixaban with concentration of more than 0.5 mg/mL in a vehicle comprising at least 35% (w/v) propylene glycol based on the total formulation, heating within the range of 25-90° C. is applied so to achieve full and quick solubilization of apixaban.
Concentrated solutions of apixaban are necessary in order to achieve low dosage volumes. The temperature of the mixture of apixaban and optionally co-solvents can be up to 90° C.

Data set [2] is described as follows: Stability of apixaban in propylene glycol on heating. The class given is physicochemical. The following applies: temperature increase up to 90° C. The method, then: as §1

`COc1ccc(-n2nc(C(N)=O)c3c2C(=O)N(c2ccc(N4CCCCC4=O)cc2)CC3)cc1` [Apixaban, 1-(4-methoxyphenyl)-7-oxo-6-[4-(2-oxopiperidin-1-yl)phenyl]-4,5,6,7-tetrahydro-1H-pyrazolo[3,4c]pyridine-3-carboxamide]: the “Dissolution of apixaban in the vehicle” value in data set [1] (0.25 mg/mL apixaban, vehicle with at least 35% (w/v) propylene glycol, room temperature) is given as “dissolves freely”. The “Most concentrated apixaban solutions prepared” value in data set [1] (dissolving at temperature up to 90° C. in at least 35% (w/v) of propylene glycol) is “up to 10 mg/mL”. The “Stability of apixaban in propylene glycol” value in data set [2] is “stable”.

The record behind these values is patent US20240041856A1, “LIQUID APIXABAN FORMULATION IN SMALL DOSE VOLUME” (DAFECHEM LIMITED, priority 2020, published 2024).
